A word on the MIC: it is the lowest concentration found to suppress growth.

We go through 3 compounds from patent US20120190613A1, “ECHINOCANDIN DERIVATIVES” (priority 2009, published 2012).

For assay [1], the system named is C. parapsilosis 630 ATCC 90018. The assay can be described thus: MIC by broth microdilution against C. parapsilosis. In kind it is cell-based. On the procedure: (§1) MIC values (μg/mL) of echinocandin class compounds of the invention against various Candida and Aspergillus species were obtained as follows. Test organisms were obtained from the American Type Culture Collection (Manassas, Va.). The isolates were maintained at −80 ° C., then thawed and sub-cultured one day prior to testing (seven days for Aspergillus strains).
(§2) The mouse serum was heat-inactivated for 30 minutes at 56° C., and filtered through a 0.2 μm low protein binding filter unit prior to use.
(§3) MIC values were determined using broth microdilution. The wells of the daughter plates ultimately contained 180 μL of RPMI-1640 medium with and without mouse serum, 10 μL of drug solution, and 10 μL of yeast or fungal inoculum.
(§4) Prior to susceptibility testing, fungal isolates were removed from frozen storage, thawed at room temperature, and subcultured to Potato Dextrose Agar. The Candida strains were incubated overnight at 35° C. and the Aspergillus strains for 7 days at 25° C. Yeast colonies were inoculated into sterile saline and adjusted to the turbidity of a 0.5 McFarland standard. Inoculums from Aspergillus strains were prepared by washing the surface of an agar slant with 1 mL of sterile saline containing 0.05% of Tween 20. The resulting colloidial suspensions were adjusted to an optical density of 0.09 to 0.11 at λ 625 nm.
(§5) Both the yeast and filamentous fungus suspensions were further diluted 1:100 in RPMI-1640 medium and dispensed into sterile reservoirs and used to inoculate the daughter plates. 10 μL of standardized inoculum was delivered into each well. This yielded a final cell concentration in the daughter plates of approximately 2.5×10^3 colony-forming units/mL. Plates were incubated at 35° C. for approximately 48 hr.
(§6) Following incubation, microplates were viewed from the bottom using a plate viewer.

For the next assay, the system named is C. albicans R303. The assay can be described thus: Mouse candidiasis infection model, C. albicans density in kidneys. It counts as in vivo, female CD-1 mice. To be noted: for Difference from 24-hr control / Mean log10 CFU/kidneys (±SD) / Mean log10 CFU/kidneys (±SEM) / Difference from 24-h control: kidneys at 24 hr. Here is the method:
The objective of these studies was to evaluate the efficacy of test compounds in the mouse candidiasis infection model.
The strain, C. albicans R303 was transferred from frozen storage onto Sabauroud dextrose agar (SDA) plates and grown for ˜24 hr at 35° C. The inoculum was prepared by transferring colonies from the plate to phosphate buffered saline (PBS) and the concentration adjusted to 10^6 CFU/mL with the aid of a spectrophotometer. The stock was diluted 1:9 to prepare the inoculum. Prior to each run the concentration was verified using the dilution plate count method.
The female CD-1 mice used in this study were obtained from Charles River Laboratories, Portage, MI. The animals were approximately seven-weeks-old at the start of the study and weighed about 16-26 g.
In one approach, mice were made neutropenic with IP injections of cyclophosphamide (150 mg/kg in 10 mL/kg) at 4 and 1 day before inoculation. Each animal was inoculated with the appropriate concentration by injecting 0.1 mL of inoculum into a tail vein. The test compounds were administered IP at 2 hr after infection.
The kidneys were collected from four mice in control group 1 (untreated) at 2 hr after infection, and from the remaining mice in the study at 24 hr after infection. Kidneys were removed aseptically from each mouse and were combined in a sterile tube. An aliquot (2 mL) of sterile PBS was added to each tube and the contents homogenized with a tissue homogenizer (Polytron 3100). Serial dilutions of the tissue homogenates were conducted and 0.1 mL aliquots were spread on SDA plates and the plates incubated at 35° C. overnight. The CFU/kidneys were determined from colony counts. Data were analyzed using one-way ANOVA with the Tukey-Kramer Multiple Comparisons Test (GraphPad InStat version 3.06, GraphPad Software, San Diego, Calif.).
Treatments were administered at 2 hr after infection with 2.1×10^5 CFU/mL of the organism. Data are the means of four mice.
Treatments were administered at 2 hr after infection with 6.4×10^5 CFU/mL of the organism. Data are the means of four mice.
Treatments were administered at 2 hr after infection with 3.8×10^5 CFU/mL of the organism. Data are the means of four mice.
Treatments were administered at 2 hr after infection with 3.8×10^5 CFU/rnL of the organism. Data are the means of four mice.

The subject of a further assay is A. flavus 626 ATCC 64025. The assay can be described thus: MIC by broth microdilution against A. flavus. In kind it is cell-based. To be noted: growth reduction of 50%. Here is the method:
as §1, §2, §3, §4, §5, §6
On the technique in general: Dilution methods test growth across graded concentrations, often in twofold steps.

Assay [2] relates to C. albicans 104 ATCC 90028. The assay can be described thus: MIC by broth microdilution against C. albicans. It counts as cell-based. On the procedure: as §1, §2, §3, §4, §5, §6
The mark [3] stands for this setting: First run, 1 mg/kg IP 2 hr after infection.
Where [4] appears, read: First run, 1 mg/kg IP 2 hr after infection, neutropenic mice.
[5] abbreviates: Second run, 1 mg/kg IP 2 hr after infection.
Setting [6] is: Third run, 0.5 mg/kg IP 2 hr after infection.
Where [7] appears, read: Third run, 1.5 mg/kg IP 2 hr after infection.
The mark [8] stands for this setting: Third run, 4.5 mg/kg IP 2 hr after infection.
Setting [9] is: Candida albicans, ATCC90028, 48 h, 0% mouse serum.
[10] abbreviates: Fourth run, 0.5 mg/kg IP 2 hr after infection.
Setting [11] is: Fourth run, 1.5 mg/kg IP 2 hr after infection.
The mark [12] stands for this setting: Fourth run, 4.5 mg/kg IP 2 hr after infection.

Converted amounts (≈) assume the structure as drawn. Read-outs that look alike come from different tables or passages of the source. Marks after values point to notes of the source that are not given here. Starred links: 1 amine or outer side, 2 acyl side, 3 side chain; linkers in the order of their positions; H or OH if unused. Positions of bridges follow the written chain, without caps; N, C: chain ends. Non-standard residues stand in square brackets, D forms with d. Residues, ends and D or L forms follow the SMILES beside them. *: point of attachment. pTerphenylCO(4''-OnC5H11) = CCCCCOc1ccc(-c2ccc(-c3ccc(C(=O)*)cc3)cc2)cc1; Orn(4R-OH,5R-OH) = O=C([C@H](C[C@@H](O)[C@@H](O)N[*:3])N[*:1])[*:2]; hTyr(3S-OH,4S-OH) = N[C@H](C(=O)O)[C@H](O)[C@@H](O)c1ccc(O)cc1; Pro(3S-OH,4S-Me) = C[C@H]1CN[C@H](C(=O)O)[C@H]1O; Hyp = O=C(O)[C@@H]1C[C@@H](O)CN1 Some results are limits rather than exact numbers.

With `CCCCCOc1ccc(-c2ccc(-c3ccc(C(=O)N[C@H]4C[C@@H](O)[C@@H](O)NC(=O)[C@@H]5[C@@H](O)[C@@H](C)CN5C(=O)[C@H]([C@@H](C)O)NC(=O)[C@H]([C@H](O)[C@@H](O)c5ccc(O)cc5)NC(=O)[C@@H]5C[C@@H](O)CN5C(=O)[C@H]([C@@H](C)O)NC4=O)cc3)cc2)cc1` [Anidulafungin, anidulafungin, reference compound] ({pTerphenylCO(4''-OnC5H11)}-[Orn(4R-OH,5R-OH)]T[Hyp][hTyr(3S-OH,4S-OH)]T[Pro(3S-OH,4S-Me)]; lactam 1-C), the minimum inhibitory concentration (MIC) is 2 µg/mL (≈ 1.75 µM) in assay [1] (Lodderomyces parapsilosis, ATCC90018, 48 h, 0% mouse serum); more than 16 µg/mL in assay [1] (Lodderomyces parapsilosis, ATCC90018, 48 h, 50% mouse serum); less than 0.015 µg/mL against A. flavus 626 ATCC 64025 (Aspergillus flavus, ATCC64025, 48 h, 0% mouse serum); 0.03 µg/mL (≈ 0.0263 µM) in the assay on A. flavus 626 ATCC 64025 (Aspergillus flavus, ATCC64025, 48 h, 50% mouse serum); 0.03 µg/mL (≈ 0.0263 µM) in assay [2] (setting [9]); 0.06 µg/mL (≈ 0.0526 µM) in assay [2] (Candida albicans, ATCC90028, 48 h, 50% mouse serum). Further, the “Difference from 24-hr control” value in the assay on C. albicans R303 (setting [3]) is on record as −1.68*** log10 CFU/kidneys; with C. albicans R303 (setting [5]) it was −1.83*** log10 CFU/kidneys; in the assay with C. albicans R303 (setting [6]), −0.47 ns log10 CFU/kidneys; in the assay with C. albicans R303 (setting [7]), −2.11*** log10 CFU/kidneys; in the assay with C. albicans R303 (setting [8]) it was −3.78*** log10 CFU/kidneys. In addition, the figures for the “Mean log10 CFU/kidneys (±SD)” value with C. albicans R303 (setting [4]) and with C. albicans R303 (setting [5]) were 3.09 ± 0.61 log10 CFU/kidneys and 3.37 ± 0.72 log10 CFU/kidneys, respectively. Also, the figures for the “Mean log10 CFU/kidneys (±SEM)” value in the assay with C. albicans R303 (setting [6]), with C. albicans R303 (setting [7]) and in the assay with C. albicans R303 (setting [8]) were 4.41 ± 0.12 log10 CFU/kidneys, 2.77 ± 0.20 log10 CFU/kidneys and 1.10 ± 0.38 log10 CFU/kidneys, respectively.
Consider `CC[C@H](C)C[C@H](C)CCCCCCCCC(=O)N[C@H]1C[C@@H](O)[C@@H](NCCN)NC(=O)[C@@H]2[C@@H](O)CCN2C(=O)[C@H]([C@H](O)CCN)NC(=O)[C@H]([C@H](O)[C@@H](O)c2ccc(O)cc2)NC(=O)[C@@H]2C[C@@H](O)CN2C(=O)[C@H]([C@@H](C)O)NC1=O` [Caspofungin, caspofungin, reference compound], for which the MIC was 0.5 µg/mL (≈ 0.457 µM) in assay [1] (Lodderomyces parapsilosis, ATCC90018, 48 h, 0% mouse serum, read-out: MIC); 2 µg/mL (≈ 1.83 µM) in assay [1] (Lodderomyces parapsilosis, ATCC90018, 48 h, 50% mouse serum, read-out: MIC); 0.06 µg/mL (≈ 0.0549 µM) with A. flavus 626 ATCC 64025 (Aspergillus flavus, ATCC64025, 0% mouse serum, 48 hr, read-out: MIC); 0.125 µg/mL (≈ 0.114 µM) in assay [2] (setting [9]); 0.06 µg/mL (≈ 0.0549 µM) in assay [2] (Candida albicans, ATCC90028, 50% mouse serum, 48 hr, read-out: MIC). Further, the “Difference from 24-hr control” value in the assay with C. albicans R303 (setting [3]) is −3.14*** log10 CFU/kidneys; in the assay on C. albicans R303 (setting [5]), −3.59*** log10 CFU/kidneys. The “Mean log10 CFU/kidneys (±SD)” value worked out at 1.63 ± 0.29 log10 CFU/kidneys in the assay on C. albicans R303 (setting [4]) and 1.61 ± 0.23 log10 CFU/kidneys in the assay on C. albicans R303 (setting [5]). In addition, the “Difference from 24-h control” value with C. albicans R303 (setting [10]) was −4.88*** log10 CFU/kidneys; with C. albicans R303 (setting [11]), −4.48*** log10 CFU/kidneys; with C. albicans R303 (setting [12]) it was −5.20*** log10 CFU/kidneys. Also, the “Mean log10 CFU/kidneys (±SEM)” value was found to be 0.33 ± 0.33 log10 CFU/kidneys with C. albicans R303 (setting [10]), 0.73 ± 0.42 log10 CFU/kidneys in the assay on C. albicans R303 (setting [11]) and 0.00 ± 0.00 log10 CFU/kidneys with C. albicans R303 (setting [12]).
Take `CCC(C)CC(C)CCCCCCCCC(=O)NC1CC(O)C(NCCNC(=O)OCCOC)NC(=O)C2C(O)CCN2C(=O)C(C(O)CCN)NC(=O)C(C(O)C(O)c2ccc(O)cc2)NC(=O)C2CC(O)CN2C(=O)C(C(C)O)NC1=O` (stereo not drawn) [Compound 1]: the MIC was 2 µg/mL (≈ 1.67 µM) in assay [1] (0% mouse serum, 48 hr); more than 16 µg/mL in assay [1] (50% mouse serum, 48 hr); 0.125 µg/mL (≈ 0.105 µM) in the assay on A. flavus 626 ATCC 64025 (0% mouse serum, 48 hr); 0.5 µg/mL (≈ 0.418 µM) with A. flavus 626 ATCC 64025 (50% mouse serum, 48 hr); 0.5 µg/mL (≈ 0.418 µM) in assay [2] (0% mouse serum, 48 hr); 1 µg/mL (≈ 0.837 µM) in assay [2] (50% mouse serum, 48 hr). The “Difference from 24-hr control” value was −0.13 ns log10 CFU/kidneys in the assay on C. albicans R303 (setting [3]) and −2.87*** log10 CFU/kidneys in the assay on C. albicans R303 (First run, 5 mg/kg IP 2 hr after infection). The “Mean log10 CFU/kidneys (±SD)” value in the assay on C. albicans R303 (setting [4]) is recorded as 4.65 ± 0.26 log10 CFU/kidneys; in the assay on C. albicans R303 (First run, 5 mg/kg IP 2 hr after infection, neutropenic mice) it was 1.90 ± 0.21 log10 CFU/kidneys. In addition, the “Reduction of yeast density in kidneys” value in the assay with C. albicans R303 (First run, 5 mg/kg dose, versus 24-hr infected control) came to 2.87 logs.
